{"source": "patent US7964614B2", "about": "“Systemic inflammatory markers as diagnostic tools in the prevention of atherosclerotic diseases and as tools to aid in the selection of agents to be used for the prevention and treatment of atherosclerotic disease” (The Brigham and Women's Hospital, Inc., priority 1997, dated 2011)", "key": {"[1]": {"test_system": "apparently healthy men (US male physicians)", "settings": "whole trial population, 325 mg aspirin on alternate days vs placebo (reference 1); cited from earlier work"}, "[2]": {"test_system": "apparently healthy men (US male physicians)", "assay": "Physicians' Health Study: randomized, double-blind, placebo controlled trial of aspirin in primary prevention; risk of first myocardial infarction, stratified by baseline C-reactive protein quartile", "type": "in vivo, human", "settings": "325 mg aspirin on alternate days vs placebo, events prior to Jan. 25, 1988", "method": "The Physicians' Health Study is a randomized, double-blind, placebo controlled, 2×2 factorial trial of aspirin and beta-carotene in the primary prevention of cardiovascular disease and cancer. A total of 22,071 US male physicians aged 40 to 84 years in 1982 with no history of myocardial infarction, stroke, transient ischemic attack, or cancer were assigned to one of four treatment groups: 325 mg aspirin on alternate days (Bufferin, provided by Bristol-Myers), 50 mg of beta-carotene on alternate days (Lurotin, provided by BASF Corporation), both, or neither. The aspirin component of the PHS was terminated early on Jan. 25, 1988 primarily due to a statistically extreme 44 percent reduction in risk of first infarction in the aspirin group.^1 The beta-carotene component continued to scheduled termination on Dec. 31, 1995.^2 Hospital records (and for fatal events, death certificates and necropsy reports) were requested for all reported cases of myocardial infarction, stroke, and venous thrombosis. Records were reviewed by a committee of physicians using standardized criteria to confirm or refute reported events. Endpoints reviewers were blinded to treatment assignment. Reported myocardial infarction was confirmed if the event met World Health Organization criteria of symptoms plus either elevated enzymes or characteristic electrocardiographic changes. Silent myocardial infarctions were not included since they could not be dated accurately. Deaths due to coronary disease were confirmed based on autopsy reports, symptoms, circumstances of death, and prior history of coronary disease. Reported stroke was confirmed based on medical records showing neurological deficit of sudden or rapid onset persisting for more than 24 hours or until death. Strokes were classified as ischemic or hemorrhagic. Computed tomography was available for more than 95 percent of confirmed strokes. Reported deep venous thrombosis was confirmed by documentation of a positive venography study or a positive ultrasound study; deep venous thrombosis documented only by impedance plethysmography or Doppler examination without ultrasound were not confirmed. […] Using these methods, we evaluated 543 cases and 543 controls in this prospective nested case-control design. Means or proportions for baseline risk factors were calculated for cases and controls. […] Because C-reactive protein levels are skewed, median levels were computed and the significance of any differences in median values between cases and controls assessed using Wilcoxon's Rank Sum Test. […] Similar models were employed to adjust for measured baseline levels of total and HDL cholesterol, triglyceride, lipoprotein(a), tPA antigen, fibrinogen, D-dimer, and homocysteine. […]"}}, "data": [{"compound": "CC(=O)Oc1ccccc1C(=O)O", "note": "[aspirin]", "values": [{"measurement": "reduction in risk of first infarction in the aspirin group", "setting": "[1]", "value": 44, "unit": "%"}, {"measurement": "reduction in risk of myocardial infarction associated with aspirin use", "setting": "[2]; first (lowest) quartile of baseline C-reactive protein", "value": 13.9, "unit": "%"}, {"measurement": "reduction in risk of myocardial infarction associated with aspirin use", "setting": "[2]; fourth (highest) quartile of baseline C-reactive protein", "value": 55.7, "unit": "%"}, {"measurement": "reduction in risk of myocardial infarction associated with aspirin use", "setting": "[2]; second quartile of baseline C-reactive protein", "value": 33.4, "unit": "%"}, {"measurement": "reduction in risk of myocardial infarction associated with aspirin use", "setting": "[2]; third quartile of baseline C-reactive protein", "value": 46.3, "unit": "%"}]}]}
